“Also recorded” adds a separate entry of the source.
Legend:
Raji lymphoma cell line = assay: Proliferation test; assay type: cell-based; settings: data not shown
NIH 373 cell line = assay: Proliferation test; assay type: cell-based; settings: data not shown
MPc3 binding to AF9 = molecular target: T1, MPc3 binding to AF9 (Homo sapiens, UniProt P42568); assay: GST pull-down assay, GST-MPc3(202-362) and biotinylated AF9; design: species or system murine; settings: 25 μg/ml
T1 construct: made in house; host or cells: GST-MPc3 from E. coli; AF9 by coupled in vitro transcription/translation (Promega)
T1 sequence (P42568 211-568): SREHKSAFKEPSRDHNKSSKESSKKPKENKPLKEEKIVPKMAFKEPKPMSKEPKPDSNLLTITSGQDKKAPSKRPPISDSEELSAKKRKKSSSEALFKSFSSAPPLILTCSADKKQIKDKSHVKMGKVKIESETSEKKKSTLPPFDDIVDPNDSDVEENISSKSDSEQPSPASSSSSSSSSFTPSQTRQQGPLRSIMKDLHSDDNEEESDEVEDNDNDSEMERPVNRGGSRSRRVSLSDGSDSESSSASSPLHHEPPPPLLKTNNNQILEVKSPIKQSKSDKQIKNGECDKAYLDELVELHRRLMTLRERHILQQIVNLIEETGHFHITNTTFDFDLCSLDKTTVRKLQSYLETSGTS
Procedure: (§1) To determine if the synthetic peptide could disrupt the AF4-AF9 interaction in vitro, and to determine if the peptide disrupted other binding events with AF9, the following assay was performed. In additional to AF4, the carboxy-terminus of AF9 binds at least two other proteins, the Polycomb protein MPc3 and mBCoR, the mouse homolog of the human BCL-6 corepressor protein (Srinivasan 2003 and Hemenway 2001, both cited above). Using a yeast three hybrid assay similar to that described in Example 1, it was previously shown that mBCoR and FMR2 (an AF4 homolog) can simultaneously bind AF9. […] The sequences of human AF4 and AF9 and murine MPc3 and BCoR can be found in the NCBI database under Accession Nos. P51825, P42568, Q9QXV1, and AAN85318, respectively, incorporated by reference herein.
(§2) Recombinant proteins consisting of glutathione-S-transferase (GST) fused to either (a) amino acids 749–775 of human AF4 SEQ ID NO: 107, (b) amino acids 202–362 of MPc3 SEQ ID NO: 108 or (c) amino acids 925–1759 of mBCoR SEQ ID NO: 109 were isolated from E. coli. These fusion proteins were immobilized on 50 μl glutathione agarose matrix. […]
(§3) After extensive washing with TBST, proteins were resolved by SDS-PAGE and transferred to nitrocellulose. […] Alkaline phosphatase activity was measured by determining the optical density of the samples at 405 nm with a plate spectrophotometer. […]

B1 cells = assay: Annexin-V/PI binding assay (flow cytometry); assay type: cell-based; settings: treated for 24 h
Procedure: To test the possibility that growth inhibition of t(4;11) leukemia cells exposed to PFWT is the result of apoptotic cell death, annexin-V labeling of the cell membrane of the leukemic cells examined in Example 5 was used to assess apoptosis as follows (Koopman, G., et al., Blood 1994 84: 1415–1420.). Annexin V binding assays were carried out using a Vibrant™ apoptosis kit (Molecular Probes). […] For annexin V-propidium iodide (PI) staining, cells were harvested, washed once with PBS and resuspended in 100 μl annexin binding buffer. 5 μl annexin V conjugated to Alexa Fluor 488 and 2 μl of 100 μg/ml PI were added to the cell suspension and incubated at room temperature for 15 minutes. The cells were then washed once in annexin binding buffer and resuspended in 400 μl annexin binding buffer. These samples were then analyzed by flow cytometry using Coulter benchtop flow cytometer. The cells were excited by a 488 nm wavelength laser beam and the emission was measured using a 530 nm filter for annexin V and a 575 nm filter for PI.

[1] = test system: RS4;11 leukemia cell line; assay: MTT viability assay and growth curve (Trypan Blue exclusion); assay type: cell-based; settings: 100 μg/ml, 72 h
Procedure: (§4) All cell lines were maintained in RPMI 1640+10% FCS. 100 μl aliquots of cell suspension (5×10^5 cells/ml) were cultured in flat-bottomed 96 well plates in the presence of different concentrations of peptides. After 72 h incubation at 37° C. in humidified air containing 5% CO2, viable cell number was determined by MTT assay as follows: 10 μl of 3-[4,5-dimethylthiazol-2-yl]-2,5-diphenyl tetrazolium bromide (MTT) (5 mg/ml concentration) (Sigma) was added to each well and incubated further for 6 h. Formazan crystals that are formed during incubation were dissolved in 100 μl of acidified isopropanol. The optical density at 550 nm (which is linearly related to the number of viable cells) was measured using a plate spectrophotometer. Growth characteristics of the leukemia cell lines were also determined for cells by Trypan Blue exclusion.

mBCoR binding to AF9 = molecular target: T2, mBCoR binding to AF9 (Homo sapiens, UniProt P42568); assay: GST pull-down assay, GST-mBCoR(925-1759) and biotinylated AF9; design: species or system murine; settings: 25 μg/ml
T2 construct: made in house; host or cells: GST-mBCoR from E. coli; AF9 by coupled in vitro transcription/translation (Promega)
T2 sequence (P42568 211-568): T1 sequence (P42568 211-568)
Procedure: as §1, §2, §3

[2] = test system: MV4-11 leukemia cell line; assay: MTT viability assay; assay type: cell-based; settings: 72 h, differing concentrations
Procedure: as §4

B1 leukemia cell line = assay: MTT viability assay; assay type: cell-based; settings: 72 h, differing concentrations
Procedure: as §4

[3] = test system: Reh B-precursor leukemia cell line; assay: MTT viability assay; assay type: cell-based; settings: 72 h
Procedure: as §4

THP-1 leukemia cell line = assay: MTT viability assay; assay type: cell-based; settings: 72 h, varying concentrations
Procedure: as §4

[4] = test system: MOLT-4 T-cell leukemia line; assay: MTT viability assay; assay type: cell-based; settings: 72 h, up to 200 μg/ml
Procedure: as §4

## CC[C@H](C)[C@H](NC(=O)[C@H](CCCCN)NC(=O)[C@@H](NC(=O)[C@H](Cc1c[nH]c2ccccc12)NC(=O)[C@H](CC(C)C)NC(=O)[C@H](CCCCN)NC(=O)[C@H](CCCCN)NC(=O)[C@H](Cc1c[nH]c2ccccc12)NC(=O)[C@H](CCCCN)NC(=O)[C@H](CCSC)NC(=O)[C@H](CCCNC(=N)N)NC(=O)[C@H](CCCNC(=N)N)NC(=O)[C@H](CC(N)=O)NC(=O)[C@H](CCC(N)=O)NC(=O)[C@H](Cc1ccccc1)NC(=O)[C@H](Cc1c[nH]c2ccccc12)NC(=O)[C@H](CCCCN)NC(=O)[C@@H](NC(=O)[C@H](CCC(N)=O)NC(=O)[C@@H](N)CCCNC(=N)N)[C@@H](C)CC)C(C)C)C(=O)N[C@@H](CC(=O)O)C(=O)N[C@@H](CC(C)C)C(=O)N[C@@H](CC(=O)O)C(=O)N[C@@H](CC(C)C)C(=O)N[C@@H](CC(C)C)C(=O)N[C@@H](CO)C(=O)N[C@@H](CCCNC(=N)N)C(=O)N[C@H](C(=O)N1CCC[C@H]1C(=O)O)C(C)C [PFWT]
Raji lymphoma cell line
  proliferation: not affect the proliferation
NIH 373 cell line
  proliferation: not affect the proliferation
MPc3 binding to AF9
  displacement of MPc3 from AF9: not displaced
B1 cells
  cells in early stages of apoptosis (Annexin-V binding, exclusion of PI): 45%
  cells in later stages of apoptosis (positive for Annexin-V and PI): 35%
[1]
  proliferation / viability: completely inhibits proliferation
mBCoR binding to AF9
  displacement of mBCoR from AF9: not displaced
[2]
  cell viability: diminished; also recorded: inhibits
B1 leukemia cell line
  cell viability: diminished; also recorded: inhibits
[3]
  cell viability: inhibited
THP-1 leukemia cell line
  cell viability: inhibited to a much lesser extent; also recorded: not significantly inhibited
[4]
  cell viability: not affected

From patent publication US7189691B2, “Methods and compositions for treating leukemia” (The Administrators of the Tulane Educational Fund, priority 2004, dated 2007)
